{
  "source": "patent US20210023111A1",
  "about": "“Novel Form of Invermectin and a Process for Making it” (Hovione Scientia Limited, priority 2018, published 2021)",
  "key": {"[1]": {"assay": "Solid-state stability of the amorphous form on storage (XRPD)", "type": "physicochemical", "excerpt": "By stable we mean that the amorphous form is maintained after a certain period of time under certain environmental conditions. We have data confirming that the product maintains its amorphous form at room temperature for at least 3.5 months.\nX-ray diffraction (XRPD) analysis was made with PANalytical Empyrean equipped with copper tube and PIXel1D-Medpix3 detector (Malvern Panalytical, UK)."}, "[2]": {"assay": "Water solubility by HPLC, amorphous vs crystalline ivermectin", "type": "physicochemical", "conditions": "for peak on the HPLC chromatogram (water solubility): LOD of the HPLC method", "excerpt": "This confirms that the amorphous form is more water soluble than the known crystalline form."}},
  "data": [
    {"substance": "ivermectin [amorphous ivermectin]", "values": [
      {"measurement": "amorphous character after storage (XRPD, FIG. 7)", "setting": "[1]; 3 months in the freezer followed by 3.5 months at room temperature (25° C.)", "value": "amorphous character is maintained"},
      {"measurement": "time for which the product maintains its amorphous form", "setting": "[1]; room temperature", "value": "at least 3.5 months"},
      {"measurement": "water solubility relative to the crystalline form", "setting": "[2]", "value": "higher than its corresponding crystalline form"},
      {"measurement": "peak on the HPLC chromatogram (water solubility)", "setting": "[2]; listed as amorphous form", "value": "small, but visible peak"}
    ]},
    {"substance": "ivermectin [known crystalline form, reference compound]", "values": [
      {"measurement": "peak on the HPLC chromatogram (water solubility)", "setting": "[2]", "value": "no visible peak"}
    ]}
  ]
}
